The numbers were not newly measured in patent publication EP4684794A1, “TECHNICAL FORMULATION FOR ACTIVE ABSORPTION OF AMINO ACIDS BY HUMAN REPRODUCTIVE SYSTEM” (Xu, Haohan, priority 2023, dated 2024), which cites them from elsewhere.

SMILES strings stand for the structures.

One data set concerns MC3T3-E1 osteoblasts. As to conditions: platelet-derived growth factor-BB, SAPK/JNK pathway.
In the next data set the test system is bone marrow macrophages. As to conditions: blocking the NF- κ B and MAPK signaling pathways.

`O=C(O[C@@H]1Cc2c(O)cc(O)cc2O[C@@H]1c1cc(O)c(O)c(O)c1)c1cc(O)c(O)c(O)c1` [EGCG, epigallocatechin gallate]: the “expression of IL-6 and IL-6 mRNA” value with MC3T3-E1 osteoblasts was “reducing the expression of IL-6 and IL-6 mRNA”. In the data set on bone marrow macrophages, the “LPS-mediated pro-inflammatory gene expression” value was “may prevent LPS-mediated pro-inflammatory gene expression”. For the same compound, the “teratogenic or developmental toxicity” value (animal experiments) is recorded as “no teratogenic or developmental toxicity was observed”. The genotoxicity entry (mouse body fluid analyses) is “no genotoxic effects”.
